Structures can show the parent of a compound that is named as a salt. Where two headings read alike, the source gives them in different places.
Target: T1, rat VMAT2-His (Rattus norvegicus, UniProt Q01827)
T1 construct: The ORF of rat VMAT2 was subcloned into a pFastBac vector; His; made in house; host or cells: Sf9 insect cells (baculovirus)
Assay: Differential scanning fluorimetry (DSF) with CPM dye: change of melting temperature of purified VMAT2
Type: binding
Conditions: for ΔTm at 12 µM / ΔTm at 37 µM / ΔTm at 10 µM / ΔTm at 30 µM / ΔTm at 90 µM / ΔTm at 270 µM / ΔTm at 11 µM / ΔTm at 33 µM: read-out: ΔTm
Method: To screen purified VMAT2 by DSF we expressed the rat VMAT2 protein, as VMAT2-His, in SF9 insect cells using the baculovirus expression system. The transporter was solubilized and purified in n-Dodecyl-β-D-maltoside (DDM)/cholesterol hemisuccinate (CHS) micelles by immobilized metal affinity chromatography (IMAC) and size exclusion chromatography (SEC). […] Screening was performed using DSF and the thiol-reactive dye 7-diethylamino-3-(4-maleimidophenyl)-4-methylcoumarin (CPM), an approach that monitors changes to the protein melting temperature (Tm) upon compound binding. Using CPM or other dyes, DSF-based assays have successfully been used in molecular-based screenings[34],[35]. […] DSF screening was performed in 384 well plates using the thiol-sensing dye 7-diethylamino-3-(4-maleimidophenyl)-4-methylcoumarin (CPM) (Merck). […] Protein melting curves were determined using a LightCycler 480 ii RT-PCR system (Roche), with a temperature ramp increasing from 25 to 95 °C at a rate of 2 °C/min. Data analysis was performed using an in-house software that automatically determines the protein midpoint melting temperature (Tm) based on the second derivative of the melting curves or using the HTSDSF explorer as described in ref. [58]. […] 6 μl of this mix was dispensed to each well of 384 well plates using a Multidrop™ Combi Reagent Dispenser (Thermo Scientific). […] All initial hits were then subjected to an initial validation in triplicates with a compound concentration of 200 μM and a ΔTm > 5× the standard deviation (SD) cut off. […] Processing of the data from the primary screening and the concentration-dependent validation was performed as reported.

[1] = Table S1, primary hits, average change in melting temperature vs controls, triplicates
[2] = Table S2 dose response, compound 0,12 µM
[3] = Table S2 dose response, compound 0,37 µM
[4] = Table S2 dose response, compound 10 µM
[5] = Table S2 dose response, compound 30 µM
[6] = Table S2 dose response, compound 90 µM
[7] = Table S2 dose response, compound 270 µM
[8] = Table S2 dose response, compound 1,11 µM
[9] = Table S2 dose response, compound 3,33 µM

T1 sequence (Q01827 whole entry): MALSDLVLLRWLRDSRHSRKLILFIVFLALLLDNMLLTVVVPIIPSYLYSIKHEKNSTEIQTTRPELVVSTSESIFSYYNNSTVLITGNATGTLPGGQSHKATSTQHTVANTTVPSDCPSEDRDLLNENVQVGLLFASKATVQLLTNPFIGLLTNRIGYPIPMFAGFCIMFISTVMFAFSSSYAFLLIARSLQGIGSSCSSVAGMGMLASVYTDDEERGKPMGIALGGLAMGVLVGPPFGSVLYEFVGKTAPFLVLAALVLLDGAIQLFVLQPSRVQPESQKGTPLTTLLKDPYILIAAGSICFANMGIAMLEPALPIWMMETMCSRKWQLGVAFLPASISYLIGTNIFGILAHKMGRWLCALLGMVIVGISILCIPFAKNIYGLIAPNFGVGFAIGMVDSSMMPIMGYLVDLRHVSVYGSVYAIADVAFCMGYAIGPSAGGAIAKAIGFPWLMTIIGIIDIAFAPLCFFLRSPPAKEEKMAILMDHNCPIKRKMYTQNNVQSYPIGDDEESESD

| Compound | ΔTm [1] | ΔTm at 12 µM [2] | ΔTm at 37 µM [3] | ΔTm at 10 µM [4] | ΔTm at 30 µM [5] | ΔTm at 90 µM [6] | ΔTm at 270 µM [7] | ΔTm at 11 µM [8] | ΔTm at 33 µM [9] | also measured |
| --- | --- | --- | --- | --- | --- | --- | --- | --- | --- | --- |
| C=CCc1ccccc1OCC(O)CNC(C)C (stereo not drawn) [Alprenolol hydrochloride] | 2,30 ± 0,05 oC | -0.11 °C | -0.04 °C | 0.14 °C | 0.73 °C | 0.4 °C | 1.21 °C | 0.04 °C | 0.02 °C |  |
| CN1CCCC(n2nc(Cc3ccc(Cl)cc3)c3ccccc3c2=O)CC1 (stereo not drawn) [Azelastine HCl] | 0,85 ± 0,24 oC |  |  | -0.6 °C | 0.35 °C | 0.23 °C | 0.55 °C |  |  |  |
| CC(C)COCC(CN(Cc1ccccc1)c1ccccc1)N1CCCC1 (stereo not drawn) [Bepridil hydrochloride] |  | -0.78 °C | -0.68 °C | -1.08 °C | -1.2 °C | -1.63 °C | -3.8 °C | -0.75 °C | -0.93 °C |  |
| C[C@H](CCC(=O)O)[C@H]1CC[C@H]2[C@@H]3[C@H](O)C[C@@H]4C[C@H](O)CC[C@]4(C)[C@H]3CC[C@]12C [Chenodiol] | 1,98 ± 0,15 oC | -0.11 °C | -0.01 °C | 0.64 °C | 0.35 °C | 0.57 °C | 2.24 °C | 0.17 °C | 0.19 °C |  |
| Clc1ccc(Cn2c(CN3CCCC3)nc3ccccc32)cc1 [Clemizole hydrochloride] | -1,46 ± 0,10 oC |  |  | 0.33 °C | 0.57 °C | 0.31 °C | -0.69 °C |  |  |  |
| C[C@@H]1C[C@H]2[C@@H]3C[C@H](F)C4=CC(=O)C=C[C@]4(C)[C@@]3(Cl)[C@@H](O)C[C@]2(C)[C@H]1C(=O)COC(=O)C(C)(C)C [Clocortolone pivalate] | 1,04 ± 0,11 oC |  |  |  |  |  |  |  |  |  |
| CCCCCCC[N+](CC)(CC)CCCCc1ccc(Cl)cc1.Cc1ccc(S(=O)(=O)[O-])cc1 [Clofilium tosylate] |  |  |  |  |  |  |  |  |  | ΔTm (270 µM): -2,26 oC; ΔTm [4]: -0,06 oC; ΔTm [5]: -0,15 oC; ΔTm [6]: -0,36 oC |
| C[C@H](CCC(=O)O)[C@H]1CC[C@H]2[C@@H]3C(=O)C[C@@H]4CC(=O)CC[C@]4(C)[C@H]3CC(=O)[C@]12C [Dehydrocholic acid] | 1,51 ± 0,28 oC |  |  | 0.39 °C | 0.66 °C | 0.53 °C | 1.43 °C |  |  |  |
| CC(NCCC(c1ccccc1)c1ccccc1)c1ccccc1 (stereo not drawn) [Fendiline hydrochloride] |  |  |  | -0.22 °C | -0.24 °C | -1.16 °C | -3.27 °C |  |  |  |
| Fc1ccc(C(OCCN2CCN(CCCc3ccccc3)CC2)c2ccc(F)cc2)cc1 [GBR 12909 dihydrochloride] | -17,11 ± 0,01 oC | -0.02 °C | -0.01 °C | -1.07 °C | -1.67 °C | -2.3 °C | -5.4 °C | 0.05 °C | -0.34 °C |  |
| CCCCC(CC)CN1CN(CC(CC)CCCC)CC(C)(N)C1 (stereo not drawn) [Hexetidine] |  | -0.09 °C | -0.06 °C | -0.28 °C | -0.3 °C | -0.46 °C | -1.54 °C | -0.02 °C | -0.07 °C |  |
| CC(C(O)c1ccc(O)cc1)N1CCC(Cc2ccccc2)CC1.CC(C(O)c1ccc(O)cc1)N1CCC(Cc2ccccc2)CC1.O=C(O)C(O)C(O)C(=O)O (stereo not drawn) [Ifenprodil tartrate] | 1,23 ± 0,40 oC |  |  |  |  |  |  |  |  | ΔTm (11 µM): -0,20 oC; ΔTm (12 µM): 0,30 oC; ΔTm (33 µM): 0,14 oC; ΔTm (37 µM): 0,32 oC; ΔTm (270 µM): 0,41 oC; ΔTm [4]: 0,09 oC; ΔTm [5]: 0,06 oC; ΔTm [6]: -0,04 oC |
| CN[C@@H]1C[C@@H](c2ccc(Cl)c(Cl)c2)c2ccccc21 [Indatraline hydrochloride] |  |  |  | -0.37 °C | -0.63 °C | -1.01 °C |  |  |  | ΔTm at 11 µM: -0.28 °C; ΔTm at 12 µM: 0.24 °C; ΔTm at 33 µM: -0.41 °C; ΔTm at 37 µM: 0.04 °C; ΔTm at 270 µM: -2.11 °C |
